Literature values, collected in US7611715B2, “Agaricus extract for preventing the induction or metastasis of cancer” (SSI Co., Ltd., priority 2002, dated 2009).

Settings: calculated

CCOC(N)=O [Urethane, ethyl carbamate]
safety dose (virtually safe dose, VSD) in human for liver cancer: 7.2e-05 mg/kg body weight
